SMILES strings stand for the structures.

Our source for the Ki values is ChEMBL document CHEMBL5214972, “Design and evaluation of novel analogs of 2-amino-4-boronobutanoic acid (ABBA) as inhibitors of human gamma-glutamyl transpeptidase” (Bioorg Med Chem, 2022).

In assay [1] the target is T1, Glutathione hydrolase 1 proenzyme (Homo sapiens, UniProt P19440). Description: Inhibition of human GGT1 expressed in Pichia pastoris assessed as inhibition of GSH hydrolysis measured by L-glutamate release assay.
The target of assay [2] is T1, Glutathione hydrolase 1 proenzyme. Description: Inhibition of human GGT1 transpeptidation in Pichia pastoris using L-GpNA as substrate in presence of Gly-Gly.
A short description of assay [3]: Inhibition of bovine GGT1 transpeptidation using gamma-glutamyl-p-nitroanilide in presence of Gly-Gly. Also noted: species or system Bos taurus.

T1 sequence (P19440 1-380 limits assumed): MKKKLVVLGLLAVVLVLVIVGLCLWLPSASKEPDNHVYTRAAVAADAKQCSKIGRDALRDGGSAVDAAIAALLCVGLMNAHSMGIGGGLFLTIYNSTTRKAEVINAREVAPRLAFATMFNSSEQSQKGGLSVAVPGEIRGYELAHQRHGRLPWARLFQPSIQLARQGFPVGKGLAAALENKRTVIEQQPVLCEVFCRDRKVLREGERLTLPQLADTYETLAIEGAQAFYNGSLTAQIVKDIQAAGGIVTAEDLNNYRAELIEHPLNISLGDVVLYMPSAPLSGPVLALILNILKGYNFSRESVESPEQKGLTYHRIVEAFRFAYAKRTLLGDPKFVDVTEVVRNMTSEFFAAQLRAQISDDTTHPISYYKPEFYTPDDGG
T1 sequence (P19440 381-569 limits assumed): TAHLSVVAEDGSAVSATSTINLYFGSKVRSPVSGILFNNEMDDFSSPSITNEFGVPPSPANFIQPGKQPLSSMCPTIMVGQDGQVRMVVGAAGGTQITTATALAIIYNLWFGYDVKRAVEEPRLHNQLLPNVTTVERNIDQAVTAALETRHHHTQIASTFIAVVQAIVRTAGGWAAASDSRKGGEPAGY

By Ki is commonly meant the equilibrium dissociation constant of an inhibitor or competing ligand from its target. As for `O=C(O)[C@@H](CCB(O)O)NCCCc1ccccc1`, the inhibition constant Ki turned out to be 108 µM in assay [1] and 49 µM in assay [2].

Take `N[C@@H](CN[C@H](CCB(O)O)C(=O)O)Cc1ccccc1`: the Ki came to 508 µM in assay [1] and 88 µM in assay [2].

As for `O=C(O)[C@@H](CCB(O)O)NCc1c[nH]cn1`, the Ki in assay [1] was determined as 87 µM; in assay [2], 26 µM.

For `N[C@@H](CCB(O)O)C(=O)O`, the Ki in assay [3] was determined as 0.017 µM; in assay [1], 0.025 µM; in assay [2] it was 0.0054 µM.

`N[C@H](CCB(O)O)C(=O)O`: the Ki in assay [1] worked out at 0.077 µM; in assay [2] it was 0.045 µM.

With `NCCN[C@H](CCB(O)O)C(=O)O`, the figures for the Ki in assay [1] and in assay [2] were 260 µM and 46 µM, respectively.

For `COc1ccc(CN[C@H](CCB(O)O)C(=O)O)cc1`, the Ki in assay [2] was determined as 343 µM.

With `N[C@H](CN[C@H](CCB(O)O)C(=O)O)Cc1ccccc1`, in assay [2], the Ki turned out to be 61 µM.

With `O=C(O)c1cccc(CN[C@H](CCB(O)O)C(=O)O)c1`, the Ki in assay [2] was determined as 589 µM.

For the molecule `O=C(O)[C@@H](CCB(O)O)NCc1ccccc1`, the Ki in assay [1] worked out at 2150 µM; in assay [2] it was 202 µM.

As for `C[C@@H](N)CN[C@H](CCB(O)O)C(=O)O`, the Ki is > 1000 µM in assay [1] and 254 µM in assay [2].

On to `O=C(O)[C@@H](CCB(O)O)NCCc1ccccc1`, for which the values for the Ki in assay [1] and in assay [2] were 356 µM and 220 µM, respectively.

In the case of `O=C(O)[C@@H](CCB(O)O)NCc1ccc(S(=O)(=O)Nc2ccccc2)cc1`, the Ki in assay [2] is 173 µM.
